Patent US9345682B2, “Inhibition of STAT3 signal transduction for human cancer therapy” (University of South Florida, priority 1999, dated 2016)

Assays:
[1] = biological target: T1, SH2 Domain of STAT3 (Homo sapiens, UniProt P40763); test: Phage display panning, 7-mer peptide library, on the SH2 domain of STAT3; type: binding
T1 construct: the SH2 domain of STAT3 is isolated as a target for screening 7-mer peptide phage display libraries; GST; made in house; host or cells: bacteria (E. coli)
Description: Phage display peptide libraries are used because of two powerful features. First, phage libraries generate an enormous diversity of peptides that can be subjected to affinity selection by panning. […] These combinatorial libraries are based on random short peptide sequences fused to a coat protein of bacteriophage, herein pIII of the filamentous coliphage MI3. Panning of the peptide library using an immobilized target, herein STAT3 fusion proteins bound onto beads, is used to select for peptide sequences that bind to STAT3. […] Peptide sequences that occur at elevated frequencies are good candidates for ST4T3-specific binding peptides. […] These cyclic peptides have the advantage of reducing entropic freedom, thereby potentially increasing binding specificity and affinity relative to linear peptides. Another variation on this approach is to combine “affinity maturation” with the phage display peptide library [Scott & Smith, 1990, Science, 249:386-390].
For panning phage with the STAT3 fusion protein, 50 ul of glutathione-Sepharose beads bound to purified GST-Stat3 fusion protein are washed with phosphate buffered saline (PBS). The beads are then incubated with 10 ul of phage suspension (1.4×10^11 virions) in 200 ul final volume of PBS for 30 min at room temperature with occasional mixing. The beads are gently pelleted in a microcentrifuge, and washed 10 times with 1 ml of PBS to remove unbound phage. Background of non-specifically bound phage is reduced by a variety of methods, including pre-blocking the beads with bovine serum albumin, pre-clearing the phage library with GST-glutathione-Sepharose beads, and washing the beads with increasing salt concentrations. Bound phage virions are eluted from the beads by incubation with a molar excess of glutathione for 30 min at room temperature. A small aliquot of the phage eluate is titered and the rest is amplified on the E. coli ER2537 host strain. Following amplification, the phage are purified by polyethylene glycol (PEG) precipitation and then the titer is determined again. […]

[2] = system: MDA-MB-468 cells; test: Cell growth of MDA-MB-468 breast carcinoma cells; type: cell-based, human
Procedure: (§1) FIG. 6: Src and JAK Inhibitors Block Growth and STAT3 Activation in Breast Carcinoma Cells. MDA-MD-468 cells are treated with inhibitors of EGF receptor (PD158780), Src (PD180970), or JAKs (AG490), and effects on cell growth (Panel A) and STAT3 DNA-binding activity (Panel B) are determined.
(§2) The involvement of these, and other, tyrosine kinases in STAT3 activation is tested using specific inhibitors of JAK family kinases, and the EGF receptor and Src family kinases.

[3] = system: STAT3; test: EMSA of constitutive STAT3 DNA-binding activity in MDA-MB-468 breast carcinoma cells; type: cell-based, human; details: MDA-MB-468 cells; dose-dependent
Procedure: as §1
STAT DNA-binding activity in human breast cancer cell lines is examined by electrophoretic mobility shift assays (EMSA) (Garcia et al., 1997, Cell Growth Diff. 8:1267-1276). In these experiments, EMSAs are performed using the ^32P-labeled sis-inducible element (SIE) as a probe to detect STAT DNA-binding activity in nuclear extracts of cells. This synthetic DNA oligonucleotide probe is a high-affinity mutant of the c-fos SIE, called hSIE, that binds both STAT1 and STAT3 (Yu, et al., 1995, Science 269:81-83). […] This activation is constitutive and occurs in the absence of exogenous EGF stimulation. By contrast, STAT3 activation is not detected in any of the three cell lines derived from normal breast tissue.
as §2

[4] = system: STAT3; test: Western blot of STAT3 serine 727 phosphorylation in Src-transformed NIH 3T3 fibroblasts; type: cell-based, mouse; details: 6 hours
Procedure: (§3) Whole-cell lysates are prepared in boiling sodium dodecyl sulfate (SDS) sample-loading buffer in order to extract total proteins from the cytoplasm and nucleus as well as preserve the in vivo phosphorylation […]. Equivalent amounts of total cellular protein are electrophoresed on an SDS-10% polyacrylamide gel and transferred to nitrocellulose membranes. Probing of nitrocellulose membranes with primary antibodies and detection of horseradish peroxidase-conjugated secondary antibodies by enhanced chemiluminescence (Amersham) are performed as previously described (Garcia, et al., 1997, Cell Growth Differ. 8:1267-1276, Turkson, et al., 1998, Mol. Cell. Biol. 18:2545-2552, Yu, et al., 1995, Science 269:81-83). Probes used are rabbit polyclonal antibodies against […] amino acid residues (626-640) of STAT3 (Santa Cruz Biotechnology), phosphoserine-727 of STAT3 (25), active (phospho-) JNK, p38^mapk or ERKs (New England Biolabs), or total JNK, p38^mapk or ERKs (Santa Cruz Biotechnology).

[5] = system: NIH 3T3/v-Ras fibroblasts; test: Soft-agar colony formation of NIH 3T3/v-Ras fibroblasts; type: cell-based, mouse; details: treated once weekly
Procedure: (§4) Colony formation assays are carried out in 6-well dishes. Each well contains 1.5 ml of 1% agarose in DMEM as the bottom layer. The top layer in each well consists of 1.5 ml of 0.5% agarose in DMEM containing 4,000 or 6,000 of NIH 3T3/v-Src or NIH 3T3/v-Ras fibroblasts, respectively. Treatment with inhibitors is initiated one day after seeding cells by adding 75-100 μl of medium with or without inhibitors and repeated once a week until formation of large colonies is evident. For quantitation, colonies are stained by adding 20 μl of 1 mg/ml iodonitrotetrazoliurn violet to each well and incubating at 37° C. overnight. Stained colonies are counted the next day.

[6] = system: STAT3; test: STAT3-specific luciferase reporter (pLucTKS3) induced by v-Src in NIH 3T3 fibroblasts; type: cell-based, mouse; details: for constitutive induction of the STAT3-dependent luciferase reporter: NIH 3T3/v-Src/TKS3 cells stably expressing reporter, 6 hours; for STAT3-specific luciferase reporter induction by v-Src: transiently transfected NIH 3T3 cells, inhibitor for 6 h
Procedure: NIH 3T3, NIH 3T3/v-Src and NIH 3T3/v-Ras fibroblasts are grown in Dulbecco's modified Eagle's medium (DMEM) containing 5% iron-supplemented bovine calf serum (BCS). Transient transfections are carried out by the standard calcium phosphate method as previously described (Turkson, et al., 1998, Mol. Cell. Biol. 18:2545-2552). NIH 3T3 fibroblasts are seeded at 5×10^5 cells/100-mm plate in DMEM plus 5% BCS at 18 to 24 hours prior to transfection. Total DNA for transfections is typically 20 μg per plate, including 4 μg of luciferase reporter construct (pLucTKS3), 0.2 μg of β-galactosidase (β-Gal) internal control vector, and the amounts of expression vector indicated in figure legends. Transfection is terminated 15 hours later by aspirating the medium, washing the cells with phosphate-buffered saline (PBS), and adding fresh DMEM. For generation of NIH 3T3/v-Src/TKS3 cell lines stably expressing the STAT3 reporter, NIH 3T3/v-Src cells are transfected using Fugene 6 (Boehringer Mannheim) according to the supplier's protocol. The transfection mixture contains 5.5 μg total DNA per 10 cm plate, including […] of the STAT3 reporter, pLucTKS3, and 0.5 μg of pcDNA3 that carries the neomycin resistance gene. Individual G418-resistant clones are picked and characterized with regard to STAT3-dependent luciferase activities.
(§5) In the case of stable NIH 3T3/v-Src/TKS3 clones, cells are treated with inhibitors or DMSO for 6 hours prior to preparing cytosolic extracts. For transient expression assays, cytosolic extracts are prepared from cells at 48 hours posttransfection as previously described (Turkson, et al., 1998, Mol. Cell. Biol. 18:2545-2552). Briefly, after two washes with PBS and equilibration for 5 min with 0.5 ml of PBS-0.5 mM EDTA, cells are scraped off the dishes and the cell pellet is obtained by centrifugation (4,500×g, 2 min, 4° C.). Cells are resuspended in 0.4 ml of low-salt HEPES buffer (10 mM HEPES [pH 7.8], 10 mM KCl, 0.1 mM EGTA, 0.1 mM EDTA, 1 mM phenylmethylsulfonyl fluoride, and 1 mM dithiothreitol) for 15 min, lysed by the addition of 20 μl of 10% Nonidet P-40 (NP-40), and centrifuged (10,000×g, 30 s, 4° C.) to obtain the cytosolic supernatant, which is used for luciferase assays (Promega) measured with a luminometer and for β-Gal activity detection by colorimetric assay at A570. As an internal control for transient transfection efficiency, results are normalized to β-Gal activity. For EMSA, nuclear extracts are prepared from transiently-transfected NIH 3T3 cells and volumes containing equal amounts of total protein are incubated with ^32P-labeled M67SIE oligonucleotide probe, as previously reported (Garcia, et al., 1997, Cell Growth Differ. 8:1267-1276, Yu, et al., 1995, Science 269:81-83). […]

[7] = system: p38, JNK1/2, ERK1/2; test: Western blot of phosphorylated (activated) MAPKs in Src-transformed fibroblasts; type: cell-based, mouse
Procedure: as §3

[8] = system: NIH 3T3/v-Src fibroblasts; test: Soft-agar colony formation of NIH 3T3/v-Src fibroblasts; type: cell-based, mouse; details: treated once weekly
Procedure: as §4

[9] = system: STAT3; test: EMSA (M67SIE probe) of STAT3 DNA-binding activity in NIH 3T3 cells expressing v-Src; type: cell-based, mouse; details: v-Src-expressing NIH 3T3 cells, 6 hours
Procedure: as §5, with “activity.” for “activity. For EMSA, nuclear extracts are prepared from transiently-transfected NIH 3T3 cells and volumes containing equal amounts of total protein are incubated with ^32P-labeled M67SIE oligonucleotide probe, as previously reported (Garcia, et al., 1997, Cell Growth Differ. 8:1267-1276, Yu, et al., 1995, Science 269:81-83).”

T1 sequence (P40763 580-670 limits assumed): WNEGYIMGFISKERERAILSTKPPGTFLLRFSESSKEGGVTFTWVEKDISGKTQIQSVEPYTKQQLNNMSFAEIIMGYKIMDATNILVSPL

## HAIYPRN (listed as Homo sapiens)
[1]
  Frequency (out of 100 clones): 16%

## IQSPHFF (listed as Homo sapiens)
[1]
  Frequency (out of 100 clones): 6%

## CNc1cc2c(Nc3cccc(Br)c3)ncnc2cn1 [PD158780]
[2]
  cell growth: not by the EGF receptor inhibitor
[3]
  constitutive STAT3 activation (STAT3 DNA-binding activity): does not block

## COc1cccc(-c2cc(=O)c3ccccc3o2)c1N [PD98059]
[4]
  STAT3 serine phosphorylation (phosphoserine-727): blocks
[5]
  colony formation of Ras-transformed fibroblasts in soft agar: lack of significant effect
[6]
  constitutive induction of the STAT3-dependent luciferase reporter: partially
  STAT3-specific luciferase reporter induction by v-Src: significantly suppresses
[7]; Src-transformed fibroblasts
  basal ERKs activity: complete block
[8]
  colony formation of Src-transformed cells in soft agar: lack of significant effect
[9]
  STAT3 DNA-binding activity induced by v-Src: no effect

## Oc1ccc(-c2nc(-c3ccncc3)c(-c3ccc(F)cc3)[nH]2)cc1 [SB202190]
[4]
  STAT3 serine phosphorylation (phosphoserine-727): blocks
[5]
  colony formation of Ras-transformed fibroblasts in soft agar: no significant effects
[6]
  constitutive induction of the STAT3-dependent luciferase reporter: completely
  STAT3-specific luciferase reporter induction by v-Src: significant inhibition
[7]; Src-transformed cells
  phosphorylation of MAPK members, including p38: does not significantly alter
[8]
  colony formation of Src-transformed cells in soft agar: completely blocks
[9]
  STAT3 DNA-binding activity induced by v-Src: no effect

## ASTLPKA (listed as Homo sapiens)
[1]
  Frequency (out of 100 clones): 7%

## Cc1cc(Nc2ncc3cc(-c4c(Cl)cccc4Cl)c(=O)n(C)c3n2)ccc1F [PD180970]
[2]
  cell growth: inhibition of cell growth
[3]
  constitutive STAT3 activation (STAT3 DNA-binding activity): effectively blocked
